From patent US20250223366A1, “MONOCLONAL ANTIBODIES AND BISPECIFIC ANTIBODY AGAINST C-MET” (BIOTHEUS INC., priority 2022, published 2025) come the findings set out here.

The subject of test [1] is H1975-HGF human lung cancer cells. As to the kind of experiment: Experimental Model 5: H1975-HGF tumor-bearing model, combination with Osimertinib. Format: in vivo, CB-17 SCID mice. The following applies: antibody Day 16 and Day 18: 3 mg/kg, Osimertinib Days 16 to 22: 3 mg/kg/day, last measured 28 days after inoculation. The source says: In this experiment, the in vivo efficacy of the bispecific antibody of the present application in combination with an small molecule EGFR inhibitor (e.g., Osimertinib) was detected. Using the lentiviral transfection method, the cDNA encoding human HGF (hepatocyte growth factor) (the sequence was from UniProtKB P14210) was constructed on the pLVX-neu vector by General Biol, and the plasmid was transfected into H1975 cells to construct a cell line ([…]) with stable expression of HGF. In this experiment, CB-17 SCID mice were subcutaneously inoculated with H1975-HGF human lung cancer cells to establish a tumor-bearing model and determine the anti-tumor effect of the anti-EGFRxc-Met bispecific antibody. The model construction process was the same as that of Experimental Model 2. The mice were divided into groups according to the grouping and dosing scheme in Table 10 and the corresponding doses of antibodies were injected.
The tumor volume and body weight of mice were measured 2 to 3 times a week. The body weight and tumor volume of mice were measured for the last time 28 days after the tumor cell inoculation, and then the mice were euthanized.

Another test concerns A375/H1975/HCC827 cells. Nature of the test: ADCC induction, CD16a-NFAT-Luc Jurkat reporter gene cells. Format: cell-based, human. The following applies: A375, H1975, HCC827 target cells, CD16a-NFAT-Luc Jurkat effector cells, 6 h, FIG. 9. The source says: A375 cells were human malignant melanoma cells and purchased from Addexbio, which were capable of expressing EGFR and c-Met receptors. H1975 cells were human lung adenocarcinoma cells and purchased from Addexbio, which were capable of highly expressing EGFR and c-Met receptors. HCC827 cells were human non-small cell lung cancer cells and purchased from the Cell Bank of the Chinese Academy of Sciences, which were capable of highly expressing EGFR and c-Met receptors. […]

Test [2] concerns H292 human lung cancer tumor cells. Nature of the test: Experimental Model 4: H292 tumor-bearing model, comparison with Rybrevant. Format: in vivo, CB-17 SCID mice. The note with it: H292, single dose Day 14: 10 mg/kg; last measured 27 days after inoculation. The source says:
In this experiment, CB-17 SCID mice were subcutaneously inoculated with H292 human lung cancer tumor cells to establish a tumor-bearing model, and the anti-EGFRxc-Met bispecific antibody was compared with the commercially available EGFRxc-Met bispecific antibody Rybrevant (purchased from Johnson & Johnson, batch number: LHS3G02) (this antibody had been published at various oncology conferences and was also known as JNJ-6372) in terms of anti-tumor effect. The mouse model establishment process was the same as that of Experimental Model 1. The groups were divided according to the grouping and dosing scheme in Table 9 and the corresponding doses of antibodies were injected.
The tumor volume and body weight of the mice were measured 2 to 3 times a week. The weight and tumor volume of the mice were measured for the last time 27 days after the inoculation of tumor cells, and the mice were euthanized.

In the next test the test system is HepG2 cells. As to the kind of experiment: Blocking HGF-induced migration of HepG2 cells. The following applies: HGF in lower chamber, 3 days, FIG. 6. In kind it is cell-based, human. The source says: HepG2 cells were human liver cancer cells and purchased from ATCC, which were capable of expressing EGFR and c-Met receptors. When HGF was placed in the lower chamber culture medium, it would induce HepG2 cells in the upper chamber to migrate to the lower chamber through the filter membrane. The specific experimental method was as follows: HepG2 cells were expanded to an appropriate density, the cells were digested and detached from the cell culture flask, resuspended to 1×10^6 cells/ml, and added to the upper chamber of the 24-well cell migration plate (purchased from Corning) at 100 μL per well for later use. The bispecific antibody was diluted to 200 nM with MEM, added to the upper chamber of the 24-well cell migration plate at 100 μL per well, and incubated at 25° C. for 60 min. h.HGF (purchased from R&D) was diluted to 50 ng/mL with MEM, added to the lower chamber of the cell migration plate at 500 μL/well, and cultured for 3 days at 37° C. and 5% carbon dioxide. The non-migrated cells on the upper chamber membrane were gently wiped with cotton swabs, the cells that migrated to the lower chamber membrane were lysed with Cell titer glo (purchased from Promega), and the chemiluminescent signal was collected with an microplate plate reader.

Test [3] addresses T1, EGFR which expressed on H292 cells (Homo sapiens, UniProt P00533).
T1 construct: H292 cells, which were human non-small cell lung cancer cells purchased from Procell, were capable of expressing EGFR and c-Met receptors; host or cells: H292 cells
As to the kind of experiment: Blocking EGF-EGFR interaction on H292 cells (flow cytometry, Biotin-h.EGF). Format: cell-based. The note with it: negative controls, FIG. 3. How it is done: H292 cells, which were human non-small cell lung cancer cells purchased from Procell, were capable of expressing EGFR and c-Met receptors. H292 cells were expanded to a suitable density, digested and detached from the cell culture flask, resuspended to 1×10^6 cells/ml, added to a 96-well flow plate, 100 μL per well, and centrifuged for later use. The antibody to be tested was subjected to 3-fold dilution with PBS, starting from 200 nM, and the diluted sample was added to the 96-well flow plate with cells, 100 μL/well, and incubated at 25° C. for 60 min. Biotin-h.EGF was diluted to 100 nM with PBS, added to the 96-well flow plate with cells, 100 μL/well, and incubated at 25° C. for 60 min. then washed twice with PBS. Streptavidin-FITC (purchased from Jackson) was diluted 100 times with PBS and added to the plate, 100 µL/well, incubated at 4° C. for 30 min, and washed twice with PBS. 100 μL/well of PBS was added to resuspend the cells, then the cells were detected on a CytoFlex (Beckman) flow cytometer, and the corresponding MFI was calculated.
For orientation: Flow cytometry measures light scatter and fluorescence of single cells or particles in a stream.

In the case of `C=CC(=O)Nc1cc(Nc2nccc(-c3cn(C)c4ccccc34)n2)c(OC)cc1N(C)CCN(C)C` [Osimertinib], the TGI in test [1] is 38.9%.

For the molecule “Amivantamab analog: control anti-EGFRxcMet bispecific antibody with anti-cMet arm of WO2011/110642A2, obtained in normal host cells [reference compound]”, in the test with A375/H1975/HCC827 cells, the ADCC effect result is “induced ADCC effects”.

As for “Rybrevant: commercially available EGFRxc-Met bispecific antibody, purchased from Johnson & Johnson, batch number LHS3G02 [reference compound]”, the results for the TGI in test [2] and in test [1] were 67.9% and 44.1%, respectively.

“anti-EGFR single-arm antibody: anti-EGFR single-arm antibody prepared based on the control antibody Amivantamab; heavy chain SEQ ID NO: 42, light chain SEQ ID NO: 4 [reference compound]”: the “blocking of HGF-induced migration of HepG2 cells” value in the test on HepG2 cells is “could not block”.

Regarding “anti-MET single-arm antibody: anti-c-Met single-arm molecule constructed based on the control molecule Amivantamab; heavy chain SEQ ID NO: 43, light chain SEQ ID NO: 8 [reference compound]”, in test [3], the “blocking interaction between EGF and EGFR” value is recorded as “could not block”.

In general, TGI refers to how far tumour growth fell short of that in controls.
